# Test results as given in patent publication US20210315992A1, “ADJUVANT EFFECT OF THE TLR1/2 AGONIST DIPROVOCIM SYNERGIZES WITH CHECKPOINT-INHIBITING ANTIBODIES TO ELIMINATE DISEASE” (The Board of Regents of the University of Texas System, priority 2018, published 2021).
# “Also recorded” adds a separate entry of the source.
# How the values were obtained:
# [1] = biological target: T1, mouse TLR1/TLR2 heterodimer (Mus musculus, UniProt Q9EPQ1+Q9QUN7); test: TNF induction in peritoneal macrophages from mice deficient in TLR signaling components; assay type: cell-based; conditions: 500 nM, 4 hours, vs C57BL/6J cells
# T1 construct: endogenous in cells; host or cells: thioglycollate-elicited peritoneal macrophages of C57BL/6J mice (wild type and knockout/mutant genotypes)
# From the text: (§1) C57BL/6J, Tlr2^−/−, Myd88^−/− and OT-I mice were purchased from The Jackson Laboratory. Ly96^−/− (MD-2^−/−) mice were from RIKEN BRC. Tlr4^1ps3/lps3, Tlr6^int/int, Tlr7^rsql/rsql, Tirapt^tor/tor, Ticam1^Lps2/Lps2, Ticam1^Lps2/Lps2/Irak4^otiose/otiose mice were generated on a pure C57BL/6J background by ENU mutagenesis and are described at http://mutagenetix.utsouthwestern.edu.
# (§2) Tlr1^−/− mice were created by CRISPR/Cas 9 gene targeting. Female C57BL/6J mice were superovulated by injection of 6.5 U pregnant mare serum gonadotropin (PMSG; Millipore), followed by injection of 6.5 U human chorionic gonadotropin (hCG; Sigma-Aldrich) 48 hours later. The superovulated mice were subsequently mated overnight with C57BL/6J male mice. The following day, fertilized eggs were collected from the oviducts and in vitro-transcribed Cas9 mRNA (50 ng/μl) and Tlr1 small base-pairing guide RNA (50 ng/μl; 5′-[…]-3′; SEQ ID NO: XX) were injected into the cytoplasm or pronucleus of the embryos. […]
# (§3) Cells were seeded onto 96-well plates at 1×10^5 cells per well and stimulated with a Diprovocim (dissolved in DMSO, and final DMSO concentrations (0.2%) were kept constant in all experiments) for 4 h. Mouse TNF, IL-6, or IFN-β, or human TNF in the supernatants were measured by ELISA kits according to the manufacturer's instructions (eBioscience and PBL Assay Science). […]
# [2] = test system: mouse TLR1/TLR2 heterodimer; test: as above; assay type: cell-based; conditions: 500 nM, 4 hours, vs C57BL/6J cells
# From the text: as §1, §2, §3
# mouse BMDC = test: IL-6 production by mouse BMDC (ELISA); assay type: cell-based; conditions: 4 hours
# Experimental: (§4) For murine BMDCs, bone morrow cells were cultured in Petri dishes in 10 ml DMEM cell culture medium containing 10 ng/ml of murine GM-CSF (R&D Systems). On day 3 of culture, this was replaced with fresh GM-CSF medium. Loosely adherent cells were transferred to a fresh Petri dish and cultured for an additional 4 d. Human PBMC were purchased from Stemcell Technologies. THP-1 (ATCC) cells were differentiated by treatment with 100 nM PMA (Sigma) in RPMI cell culture medium [RPMI containing 10% vol/vol FBS (Gemini Bio Products), 1% penicillin and streptomycin (Life Technologies)] for 24 hours. After that, cells were washed with PBS and cultured in fresh RPMI cell culture medium for 24 hours before use in studies.
# (§5) Cells were seeded onto 96-well plates at 1×10^5 cells per well and stimulated with a Diprovocim (dissolved in DMSO, and final DMSO concentrations (0.2%) were kept constant in all experiments) for 4 h. Mouse TNF, IL-6, or IFN-β, or human TNF in the supernatants were measured by ELISA kits according to the manufacturer's instructions (eBioscience and PBL Assay Science). Pretreatment with 20 μg/ml anti-TLR1, anti-TLR2 or isotype control antibody (eBioscience) was for 1 hour. Unless otherwise indicated, mouse cells were from wild type C57BL/6J mice.
# [3] = test system: mouse peritoneal macrophages; test: TNF production by mouse peritoneal macrophages (ELISA); assay type: cell-based; conditions: Peritoneal macrophage, 4 hours, read-out: EC50, dose-dependent TNF production
# Experimental: Thioglycollate-elicited macrophages were recovered 4 days after i.p. injection of 2 ml BBL thioglycollate medium, brewer modified (4% wt/vol; BD Biosciences) by peritoneal lavage with 5 ml phosphate buffered saline (PBS). The peritoneal macrophages were cultured in DMEM cell culture medium [DMEM containing 10% vol/vol FBS (Gemini Bio Products), 1% vol/vol penicillin and streptomycin (Life Technologies)] at 37° C. and 95% air/5% CO2.
# as §5
# human PBMC = test: TNF production by human PBMC (ELISA); assay type: cell-based; conditions: 24 hours
# Experimental: as §4
# […] Mouse TNF, IL-6, or IFN-β, or human TNF in the supernatants were measured by ELISA kits according to the manufacturer's instructions (eBioscience and PBL Assay Science). Pretreatment with 20 μg/ml anti-TLR1, anti-TLR2 or isotype control antibody (eBioscience) was for 1 hour. Unless otherwise indicated, mouse cells were from wild type C57BL/6J mice.
# C57BL/6J mice = test: Immunization with OVA and measurement of antibody response; assay type: in vivo, mouse
# Experimental: EndoFit ovalbumin (OVA) with 98% purity minimum (SDS-PAGE) and endotoxin levels <1 EU/mg was purchased from Invivogen. Mice (4 mice per group) were immunized i.m. with 100 μg OVA mixed with vehicle (DMSO:Tween 80:saline=1:1:8), with 10 mg/kg Diprovocim, or with 2 mg/kg Alum (Alhydrogel adjuvant 2%, Invivogen). After 14 days, serum titers of OVA-specific IgG, IgG1, or IgG2b (SouthernBiotech) were measured by ELISA.
# mice = test: In vivo adjuvant activity and toxicity in mice when co-injected with an immunogen; conditions: compared with LPS administration
# B16-OVA melanoma = test: Tumor-infiltrating leukocyte analysis in B16-OVA tumors (flow cytometry); assay type: in vivo, mouse
# Experimental: A total of 2×10^5 B16-OVA cells in 100 μL PBS were injected s.c. into the flank of each mouse to establish tumors (n=6 mice per treatment). 10 mg/kg Diprovocim-1 or 2 mg/kg alum with OVA (100 μg) was injected i.m. into mice on day 3 after tumor inoculation. Mice received a booster shot seven days after the first immunization. On day 3, 6, 9, and 12 after tumor inoculation, mice were also injected i.p. with 200 μg anti-mPD-L1.
# On day 14 after tumor inoculation, tumors were harvested, minced and filtered through a 40-μm strainer to obtain single-cell suspensions. Red blood cells were lysed with RBC lysis buffer (Sigma). After pelleting, cells were stained with a mixture of antibodies for 45 minutes, including anti-mouse CD45.2-PE or CD45.2-APC (BioLegend), anti-mouse CD3-FITC (BD Biosciences), anti-mouse CD4-BV786 (BD Biosciences), anti-mouse CD8-BV510 (BioLegend), anti-mouse CD44-PE-CF594 (BioLegend), APC-conjugated H-2Kb/OVA (SIINFEKL; SEQ ID NO: XX) tetramer (Baylor College of Medicine), anti-mouse F4/80-PE (Tonbo Bioscience), anti-mouse CD11b-BV605 (BioLegend), anti-CD11c-BV711 (BD Biosciences), anti-NK1.1-BV650 (BD Biosciences). Then, the cells were washed twice with PBS. Stained cells were analyzed with an LSRII instrument (BD Biosciences) and the flow cytometry data were analyzed using FlowJo software.
# T1 sequence (Q9EPQ1 26-795): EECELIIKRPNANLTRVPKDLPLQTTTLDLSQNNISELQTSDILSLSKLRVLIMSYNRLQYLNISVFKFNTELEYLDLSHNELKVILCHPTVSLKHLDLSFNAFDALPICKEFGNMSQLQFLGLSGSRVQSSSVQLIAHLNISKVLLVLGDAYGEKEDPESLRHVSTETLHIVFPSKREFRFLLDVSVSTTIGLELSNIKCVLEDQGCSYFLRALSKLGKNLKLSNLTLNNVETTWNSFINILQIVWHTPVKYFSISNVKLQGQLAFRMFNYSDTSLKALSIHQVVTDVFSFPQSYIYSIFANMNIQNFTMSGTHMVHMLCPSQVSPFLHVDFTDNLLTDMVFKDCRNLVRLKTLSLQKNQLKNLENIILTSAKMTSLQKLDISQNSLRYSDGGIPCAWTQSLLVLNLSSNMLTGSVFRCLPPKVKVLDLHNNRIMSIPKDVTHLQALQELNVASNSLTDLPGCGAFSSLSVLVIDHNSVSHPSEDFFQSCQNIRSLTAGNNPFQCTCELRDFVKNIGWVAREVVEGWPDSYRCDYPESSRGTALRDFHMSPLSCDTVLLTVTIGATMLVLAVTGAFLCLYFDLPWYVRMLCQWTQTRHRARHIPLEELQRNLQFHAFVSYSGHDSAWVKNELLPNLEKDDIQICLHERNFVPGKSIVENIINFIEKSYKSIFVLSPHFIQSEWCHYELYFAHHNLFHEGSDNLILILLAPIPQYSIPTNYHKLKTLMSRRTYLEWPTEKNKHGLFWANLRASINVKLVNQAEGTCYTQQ
# T1 sequence (Q9QUN7 25-784): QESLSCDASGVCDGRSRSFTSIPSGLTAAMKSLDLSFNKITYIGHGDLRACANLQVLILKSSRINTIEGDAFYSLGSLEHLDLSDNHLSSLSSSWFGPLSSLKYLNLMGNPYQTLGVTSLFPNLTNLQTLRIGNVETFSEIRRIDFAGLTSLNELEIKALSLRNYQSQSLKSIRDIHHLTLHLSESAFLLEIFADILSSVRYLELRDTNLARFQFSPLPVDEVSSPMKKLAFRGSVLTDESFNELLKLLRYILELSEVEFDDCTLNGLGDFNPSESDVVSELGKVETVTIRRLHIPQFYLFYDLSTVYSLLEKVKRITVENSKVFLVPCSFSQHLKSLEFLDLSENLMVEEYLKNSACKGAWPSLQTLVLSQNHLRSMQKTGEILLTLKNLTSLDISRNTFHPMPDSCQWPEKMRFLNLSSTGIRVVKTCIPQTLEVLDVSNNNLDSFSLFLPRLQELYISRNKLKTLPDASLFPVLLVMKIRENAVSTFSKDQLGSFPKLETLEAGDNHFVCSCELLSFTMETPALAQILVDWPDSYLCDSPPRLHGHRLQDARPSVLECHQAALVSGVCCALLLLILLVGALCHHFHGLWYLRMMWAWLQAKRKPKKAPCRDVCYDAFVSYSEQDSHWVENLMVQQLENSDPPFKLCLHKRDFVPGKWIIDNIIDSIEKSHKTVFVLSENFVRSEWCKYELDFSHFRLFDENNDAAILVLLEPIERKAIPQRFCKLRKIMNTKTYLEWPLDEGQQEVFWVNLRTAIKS
smiles,measurement,setting,value
"O=C(N[C@H]1C[C@@H]1c1ccccc1)[C@@H]1CN(C(=O)c2ccc(C(=O)N3C[C@@H](C(=O)N[C@H]4C[C@@H]4c4ccccc4)[C@H](C(=O)N[C@H]4C[C@@H]4c4ccccc4)C3)cc2)C[C@H]1C(=O)N[C@H]1C[C@@H]1c1ccccc1 [Diprovocim-1, (3S,3'S,4S,4'S)-1,1′-Terephthaloylbis(N^3,N^4-bis((1S,2R)-2-phenylcyclo-propyl)pyrrolidine-3,4-dicarboxamide)]","activity (TNF) in macrophages from MyD88-, TIRAP-, and IRAK4-deficient cells",[1],dramatically reduced
same,induction of TNF in TLR1- or TLR2-deficient macrophages,[2],completely absent
same,IL-6 production,mouse BMDC,induced IL-6 production
same,EC50,[3],1.3 nM
same,activation of TNF production compared with Pam3CSK4,human PBMC,more potent and efficacious; also recorded: more potent than Pam3CSK4
same,EC50,"human PBMC; read-out: EC50, dose-dependent TNF production",0.875 nM
same,adjuvant activity in antigen-specific antibody production in TLR2-deficient mice,C57BL/6J mice; Tlr2−/− mice,abrogated
same,serum OVA-specific IgG compared to OVA plus vehicle,"C57BL/6J mice; wild type mice, i.m. with 100 μg OVA, Diprovocim 10 mg/kg or alum 2 mg/kg, day 14",highly elevated
same,overt toxicity when used as an adjuvant,mice,did not display the overt toxicity
same,frequency of leukocytes (TILs) in tumors compared to vehicle+OVA,"B16-OVA melanoma; day 14, immunization day 3 and 10, plus anti-PD-L1",significantly increased
same,frequency of NK cells in tumors,"B16-OVA melanoma; day 14, vs vehicle+OVA",increased
same,frequency of OVA-specific CD8 T cells in tumors,"B16-OVA melanoma; day 14, vs vehicle+OVA",increased
same,frequency of total and activated (CD44high) CD4 T cells in tumors,"B16-OVA melanoma; day 14, vs vehicle+OVA",increased
same,frequency of total and activated (CD44high) CD8 T cells in tumors,"B16-OVA melanoma; day 14, vs vehicle+OVA",increased
